Laboratory results reported in paper PMC11006503, “New Tin (IV) and Organotin (IV) Complexes with a Hybrid Thiosemicarbazone/Hydrazone Ligand: Synthesis, Crystal Structure, and Antiproliferative Activity” (Bioinorganic Chemistry and Applications, 2024).
“Also recorded” adds a separate entry of the source. Where two headings read alike, the source gives them in different places.

How the values were obtained:
Type in all cases: cell-based, human
HepG2 = assay: MTT cell proliferation assay; conditions: for IC50: MTT, mean ± SEM
Description: (§1) Four cancerous cell lines (human triple negative breast cancer cell line MDA-MB-231, human cervical cancer cell line HeLa, human prostate cancer cell line PC3, and human liver cancer cell line HepG2) and the human normal lung fibroblast cell line, WI-38, were obtained from the central cell repository of National Centre for Cell Science (NCCS), Pune. The cell lines were cultured in a T25 flask with Dulbecco's modified Eagle medium (DMEM), supplemented with 10% foetal bovine serum, nonessential amino acids, 1 mM sodium pyruvate, 2 mM L-glutamine, 100 mg/L streptomycin, […] penicillin, and 50 mg/L gentamycin in a 37°C humidified incubator containing 5% CO2. […] As DMSO has been used to prepare the different concentrations of the compounds, we have added 0.5% DMSO in the control setup. After the incubation period, media was discarded from the 96-well plates and washed with 1 × PBS solution twice. Then, MTT (100 µL; 0.5 mg/mL) was added to each well and incubated in a humidified incubator containing 5% CO2 at 37°C for 4 h. After discarding the supernatant, the purple-colored formazan crystals formed in the wells were dissolved with 100 μL DMSO per well and the absorbance was estimated at 490 nm using a microplate reader. The experiments were repeated three times, and the cell viability was expressed as a percentage of the control experimental setup. […] For all the MTT assays, three fully independent experiments have been performed, and each experiment has been conducted with biological triplicate samples.

HeLa = assay: MTT cell proliferation assay; conditions: 24 h; for IC50: MTT, mean ± SEM
Description: as §1

PC3 = assay: MTT cell proliferation assay; conditions: for IC50: MTT, mean ± SEM
Description: as §1

[1] = tested on: WI-38 normal lung fibroblast cell line; assay: MTT cell proliferation assay; conditions: for IC50: normal cell line, MTT, mean ± SEM
Description: as §1

MDA-MB-231 = assay: MTT cell proliferation assay; conditions: for IC50: MTT, mean ± SEM, read-out: IC50 MDA-MB231
Description: as §1

MDA-MB-231 cells [2] = assay: Mitochondrial membrane potential by JC1 staining (fluorescence microscopy and flow cytometry); conditions: for cellular population with increase in JC1 green fluorescence intensity (flow cytometry): control 3.93%
Description: The changes in mitochondrial membrane permeability were determined by JC1 (molecular probes). MDA-MB-231 cells were treated with compound 3 (0.25 µM, 0.5 µM, and 1 µM) for the indicated time period, harvested, washed twice in 1 × PBS, resuspended in PBS supplemented with JC1 dye (3 µM final concentration), and incubated for 15 min in the dark at 37°C and flow cytometric analysis was immediately performed using a FACSVerse instrument (BD) or images were captured with fluorescent microscope (Leica).

MDA-MB-231 cells [3] = assay: Annexin V-FITC/PI staining apoptosis assay (flow cytometry); conditions: for annexin-V-FITC+/PI− (early apoptotic) and annexin V-FITC+/PI+ (late apoptotic) cell population: control 0.01%
Description: Induction of apoptosis was quantified via flow cytometric analysis of control ([…]) and cells treated with complex 3 (0.25 µM, 0.5 µM, and 1 µM) that were stained with annexin V-FITC/PI [50], using the Annexin V-FITC apoptosis detection kit according to the manufacturer's protocol (BD Bioscience). Post treatment cells were harvested with 1 × trypsin and washed in ice 1 × PBS followed by resuspension in 100 µL of 1 × binding buffer solution supplied within the kit. Finally, cells were incubated with 5 μL of annexin V-FITC and 5 μL of PI for 15 min at room temperature in the dark before acquiring data using BD FACSVerse flow cytometer (BD Biosciences, San Jose, CA). Annexin V/FITC positive cells were regarded as apoptotic cells analyzed using Cell Quest software (BD Biosciences).

MDA-MB-231 cells [4] = assay: Cellular ROS measurement using DCFDA (fluorescence microscopy and flow cytometry)
Description: To measure the production of intercellular reactive oxygen species (ROS) produced by treatment with complex 3, the DCFDA method was used. MDA-MB-231 cells were seeded in a 6-well plate and treated with complex 3 (0.25 µM, 0.5 µM, and 1 µM) for 24 h using arsenic as a positive control agent and NAC as negative control. Post treatment, the media was discarded and incubated with 10 µM H2DCFDA for 30 min at 37°C. For fluorescence imaging, cells incubated with H2DCFDA were washed, resuspended in 1 × PBS, and directly imaged under a fluorescence microscope (Leica). For flow cytometric analysis, cells were then trypsinized, washed with 1 × PBS, and collected in centrifuge tubes. DCF fluorescence was measured using BD FACSVerse flow cytometer (BD Biosciences) and analyzed using Cell Quest software (BD Biosciences).

MDA-MB-231 cells [5] = assay: Cell cycle profiling by propidium iodide staining (flow cytometry); conditions: 1.0 µM, 24 h, mean ± SEM
Description: MDA-MB-231 cells were seeded at a density of 1 × 10^6 cells/mL in each Petri dish for 24 h. Thereafter, the cells were treated with increasing concentration of complex 3 (0.25 µM, 0.5 µM, and 1 µM) for 24 h and 0.5% DMSO was added in the control setup. Post treatment, cells were harvested into single cell suspension and fixed by 75% ethanol for 24 h. at −20°C. After centrifugation, the cells pellets were resuspended in 1 × PBS followed by RNaseA (20 μM) treatment for 2 h at 37°C. Finally, propidium iodide was added and incubated at room temperature for 20 min. Subsequently, the samples were measured using BD FACSVerse flow cytometer (BD Biosciences, San Jose, CA) and analyzed using BD FACS DIVA software.

N.N.[Cl][Pt][Cl] [Cisplatin, cisplatin, reference compound]
IC50 (HepG2; 24 h): 11.5 ± 2.06 µM | IC50 (HeLa): 3260 ± 230 nM | IC50 (PC3; 24 h): 5.36 ± 1.24 µM | IC50 ([1]; 24 h): 20.6 ± 1.52 µM | IC50 (MDA-MB-231; 24 h): 8250 ± 1640 nM | JC1 aggregate/JC1 monomer fluorescence intensity ratio (fluorescence microscopy) (MDA-MB-231 cells [2]; 8 µM): 0.25 ± 0.06 | early apoptotic cell population (LR quadrant) (MDA-MB-231 cells [3]; 8 µM, positive control): 44.46% | late apoptotic cell population (UR quadrant) (MDA-MB-231 cells [3]; 8 µM, positive control): 18.52%

CC(=N\NC(=O)c1ccncc1)/C(C)=N/NC(N)=S [L ^ 1 H 2, Diacetyl-2-(Thiosemicarbazone)-3-(Isonicotinichydrazone)]
IC50 (HepG2; Homo sapiens, HepG2, 24 h): 5.14 ± 0.52 µM | IC50 (HeLa; Homo sapiens, HeLa): 1060 ± 210 nM | IC50 (PC3; Homo sapiens, PC-3, 24 h): 4.86 ± 0.75 µM | IC50 ([1]; Homo sapiens, WI-38, 24 h): 10.8 ± 0.96 µM | IC50 (MDA-MB-231; Homo sapiens, MDA-MB-231, 24 h): 2420 ± 330 nM

CC(=N\NC(=O)c1ccncc1)/C(C)=N/NC(N)=S [[L ^ 1 H 3 ]Cl] [Diacetyl-2-(Thiosemicarbazone)-3-(Isonicotinichydrazonium) Chloride]
IC50 (HepG2; 24 h): 6.27 ± 0.98 µM | IC50 (HeLa): 1490 ± 460 nM | IC50 (PC3; 24 h): 3.49 ± 0.73 µM | IC50 ([1]; 24 h): 14.1 ± 0.48 µM | IC50 (MDA-MB-231; 24 h): 2480 ± 470 nM

[As] [arsenic, reference compound]
mean fluorescence intensity (MFI), fold change in comparison with the control (H2DCFDA, flow cytometry) (MDA-MB-231 cells [4]; 1 µM, 24 h): 4.91 ± 0.05 fold | fold increase of green fluorescence intensity (H2DCFDA, fluorescence microscopy) (MDA-MB-231 cells [4]; positive control, concentration not given): 4.28 ± 0.09 fold

CC1=[N+]2N=C(N)[S][Sn-2]23([CH3])([CH3])[O]C(c2ccncc2)=N[N+]3=C1C [complex 1, [SnMe2L^1]n]
IC50 (HepG2; 24 h): 4.97 ± 0.76 µM | IC50 (HeLa): 2220 ± 540 nM | IC50 (PC3; 24 h): 2.76 ± 0.52 µM | IC50 ([1]; 24 h): 15.6 ± 0.73 µM | IC50 (MDA-MB-231; 24 h): 3540 ± 340 nM

CC1=[N+]2N=C(N)[S][Sn-2]23([c]2ccccc2)([c]2ccccc2)[O]C(c2ccncc2)=N[N+]3=C1C [complex 3, [SnPh2L^1]n]
G2/M cell population (G2/M arrest) (MDA-MB-231 cells [5]): 56.07% | Percentage of cell viability HepG2 (HepG2; 0.25 µM, 24 h): 80.36% | Percentage of cell viability HepG2 (HepG2; 0.5 µM, 24 h): 70.36% | Percentage of cell viability HepG2 (HepG2; 1 µM, 24 h): 58.39% | Percentage of cell viability HepG2 (HepG2; 2 µM, 24 h): 45.27% | Percentage of cell viability HepG2 (HepG2; 5 µM, 24 h): 30.68% | IC50 (HepG2; 24 h): 1.59 ± 0.17 µM | Percentage of cell viability Hela (HeLa; 0.25 µM): 70% | Percentage of cell viability Hela (HeLa; 0.5 µM): 46.24% | Percentage of cell viability Hela (HeLa; 1 µM): 30.21% | Percentage of cell viability Hela (HeLa; 2 µM): 25.19% | Percentage of cell viability Hela (HeLa; 5 µM): 20.16% | Percentage of cell viability PC3 (PC3; 0.25 µM, 24 h): 82.17% | Percentage of cell viability PC3 (PC3; 0.5 µM, 24 h): 76.09% | Percentage of cell viability PC3 (PC3; 1 µM, 24 h): 60.16% | Percentage of cell viability PC3 (PC3; 2 µM, 24 h): 48.24% | Percentage of cell viability PC3 (PC3; 5 µM, 24 h): 35.73% | IC50 (PC3; 24 h): 1.97 ± 0.24 µM | Percentage of cell viability WI-38 ([1]; 0.25 µM, 24 h): 98.36% | Percentage of cell viability WI-38 ([1]; 0.5 µM, 24 h): 95.32% | Percentage of cell viability WI-38 ([1]; 1 µM, 24 h): 80.17% | Percentage of cell viability WI-38 ([1]; 2 µM, 24 h): 76.21% | Percentage of cell viability WI-38 ([1]; 5 µM, 24 h): 70.24% | IC50 ([1]; 24 h): 15.7 ± 0.28 µM | Percentage of cell viability MDA-MB 231 (MDA-MB-231; 0.25 µM, 24 h): 65.43% | Percentage of cell viability MDA-MB 231 (MDA-MB-231; 0.5 µM, 24 h): 50.06% | Percentage of cell viability MDA-MB 231 (MDA-MB-231; 1 µM, 24 h): 28.63% | Percentage of cell viability MDA-MB 231 (MDA-MB-231; 2 µM, 24 h): 20.19% | Percentage of cell viability MDA-MB 231 (MDA-MB-231; 5 µM, 24 h): 18.37% | IC50 (MDA-MB-231; 24 h): 510 ± 130 nM | mean fluorescence intensity (MFI), fold change in comparison with the control (H2DCFDA, flow cytometry) (MDA-MB-231 cells [4]; 0.25 µM, 24 h): 1.47 ± 0.17 fold | mean fluorescence intensity (MFI), fold change in comparison with the control (H2DCFDA, flow cytometry) (MDA-MB-231 cells [4]; 0.5 µM, 24 h): 2.58 ± 0.23 fold | ROS generation / MFI in cells pretreated with N-acetylcysteine (NAC) (MDA-MB-231 cells [4]; 1 µM, 10 mM NAC pretreatment, compared to complex 3 alone): reduce the generation of ROS; also recorded: decrease in the MFI value | fold increase in fluorescence intensity in comparison to control (H2DCFDA, fluorescence microscopy) (MDA-MB-231 cells [4]; 1 µM, 24 h): 3.57 ± 0.08 fold | mean fluorescence intensity (MFI), fold change in comparison with the control (H2DCFDA, flow cytometry) (MDA-MB-231 cells [4]; 1 µM, 24 h): 4.73 ± 0.14 fold | JC1 aggregate/JC1 monomer fluorescence intensity ratio (fluorescence microscopy) (MDA-MB-231 cells [2]; 0.25 µM, 24 h): 1.36 ± 0.78 | cellular population with increase in JC1 green fluorescence intensity (flow cytometry) (MDA-MB-231 cells [2]; 0.25 µM, 24 h): 37.47% | cellular population with increase in JC1 green fluorescence intensity (flow cytometry) (MDA-MB-231 cells [2]; 0.5 µM, 24 h): 52.22% | JC1 aggregate/JC1 monomer fluorescence intensity ratio (fluorescence microscopy) (MDA-MB-231 cells [2]; 1 µM, 24 h): 0.27 ± 0.13 | cellular population with increase in JC1 green fluorescence intensity (flow cytometry) (MDA-MB-231 cells [2]; 1 µM, 24 h): 74.51% | early apoptotic cell population (LR quadrant) (MDA-MB-231 cells [3]; 0.25 µM, 24 h): 15.99% | late apoptotic cell population (UR quadrant) (MDA-MB-231 cells [3]; 0.25 µM, 24 h): 5.24% | annexin-V-FITC+/PI− (early apoptotic) and annexin V-FITC+/PI+ (late apoptotic) cell population (MDA-MB-231 cells [3]; 0.25 µM, 24 h): 21.23% | early apoptotic cell population (LR quadrant) (MDA-MB-231 cells [3]; 0.5 µM, 24 h): 36.25% | late apoptotic cell population (UR quadrant) (MDA-MB-231 cells [3]; 0.5 µM, 24 h): 21.56% | annexin-V-FITC+/PI− (early apoptotic) and annexin V-FITC+/PI+ (late apoptotic) cell population (MDA-MB-231 cells [3]; 0.5 µM, 24 h): 57.81% | early apoptotic cell population (LR quadrant) (MDA-MB-231 cells [3]; 1 µM, 24 h): 32.32% | late apoptotic cell population (UR quadrant) (MDA-MB-231 cells [3]; 1 µM, 24 h): 34.15% | annexin-V-FITC+/PI− (early apoptotic) and annexin V-FITC+/PI+ (late apoptotic) cell population (MDA-MB-231 cells [3]; 1 µM, 24 h): 66.47% | necrotic cell population zone (MDA-MB-231 cells [3]; 0.25, 0.5 and 1 µM, 24 h): No significant cell population
